How the values were obtained:
[1] = randomised, double-blind, parallel-group clinical trial, 8 weeks; HAM-D and MADRS items of suicidal thoughts; format: in vivo; settings: escitalopram daily dose of 10-20 mg compared with 40 mg citalopram; persons with major depression
Experimental: In brief, a clinical trial was designed as a randomised, double-blind, parallel-group trial comprising two different fixed escitalopram doses (10 mg and 20 mg per day) for eight weeks. A placebo-arm was included, as was an active comparator arm in terms of 40 mg citalopram per day. The persons fulfilled the following criteria: (a) DSM-IV (i) major depression with symptoms present for a minimum of 4 weeks; (b) minimum total score of 22 on the 10-item MADRS (Montgomery SA, Åsberg M., A new depression scale designed to be sensitive to change., Br. J. Psychiatry 1979, 134, 382-389) and a score of 2 or more on the HAM-D item (depressed mood) (Hamilton, M., Br. J. Soc. Clin. Psychol 1967, 6, 278-296). Persons who still fulfilled the MADRS and HAM-D criteria after 1-week, single-blind placebo lead-in were randomised to the double-blind treatment. Throughout the 8-week double-blind treatment period, persons assigned to placebo or escitalopram 10 mg daily received no adjustment of dosage. Persons in the escitalopram 20 mg daily group and in the citalopram group were titrated to their final dose of after 1 week of treatment at half of their assigned dose. […] Persons were evaluated at baseline (the end of the 1-week placebo lead-in) and after 1, 2, 4, 6, and 8 weeks. […]

[2] = analysis of data from four clinical studies; suicidal thoughts (MADRS item 10); format: in vivo, patients

CN(C)CCC[C@@]1(c2ccc(F)cc2)OCc2cc(C#N)ccc21 [escitalopram]
reducing suicidal thoughts [1]: more effective | overall effect on suicidal thoughts or suicidal ideation ([2]; after one week of treatment with 10-20 mg escitalopram compared to placebo): significantly pronounced already after one week | percentage of patients experiencing an increase in suicidal thoughts ([2]; after one week of treatment, compared to patients treated with citalopram or placebo): significantly lower | treatment of the group of patients having a score greater than or equal to 2 on item 10 on the MADRS depression scale ([2]; compared to citalopram, results of four clinical studies): more much more effective | alleviation of suicidal ideation ([2]; general statement of the finding): early alleviation of suicidal ideation

Reference: patent US20050107466A1, “Method of treating or reducing suicidal thoughts with escitalopram” (H. Lundbeck A/S, priority 2003, published 2005)
